Values joined by “and” are separate entries in the source; they are usually repeats but may differ in a detail not shown here. Equal entries are not always repeated. Marks after values point to notes of the source that are not given here.
What was measured:
[1] = tested on: CNS activity (motor coordination and balance); assay: Rotarod test; format: in vivo, rats; settings: 150 mg/kg i.p.; 1 and 6 hr post-dosing
Procedure: The objective of this study was to evaluate the potential CNS effects of LR-90 and gabapentin (the latter a widely used drug for neuropathic pain) in rats. LR-90 in 20% HPβCD formulation was delivered at a dose of 50 or 100 mg/kg by oral gavage and gabapentin (150 mg/kg) was delivered by i.p. injection. The rotarod test was employed to measure the CNS activity (motor coordination and balance) and the performance time was recorded at 0 (baseline), 1, 6 and 24 hr post-dose.

[2] = Mean group body weight in Taxol model; format: in vivo, rat; settings: 150 mg/kg IP, Group 2
Procedure: (§1) Neuropathic pain was induced by intraperitoneal administration of Taxol at a dose level of 6 mg/kg on study days 0-6 and 12 mg/kg on study days 7-12. Following injection of Taxol animals experienced pain as was assessed using the von Frey test. The development of neuropathic pain was confirmed by measuring mechanical allodynia (Von Frey test) on study day 13 (for inclusion) and on study day 14 (1 hour and 2 hour post dosing) and 24 hour post first dosing.

[3] = Survival of animals during the study; format: in vivo, rat; settings: 150 mg/kg IP, Group 2
Procedure: as §1

[4] = tested on: Taxol-induced neuropathic pain; assay: Von Frey test (mechanical allodynia) in Taxol induced model of neuropathic pain; format: in vivo, rat; settings: Group 2; for mean Von Frey force required for withdrawal: 150 mg/kg IP
Procedure: as §1
All data are presented as means±SEM. Each treatment group was compared to the Vehicle group using Two way ANOVA (for VF) followed by Tukey post-test (GraphPad). Vehicle group is compared to naïve group using T-test. A p value<0.05 is considered to represent a significant difference.
The response to tactile allodynia was evaluated using the Von Frey apparatus (Touch Test®). The rat was placed in an enclosure and positioned on a metal mesh surface, but allowed to move freely. A set of dull monofilaments provide an increasing force was applied on the animal plantar surface of the paw. The lowest force requires for animal paw withdrawal was recorded. Low force values recorded in this test indicate a painful state.

In the case of `NCC1(CC(=O)O)CCCCC1` [Gabapentin, reference compound], the “rotarod performance time compared with vehicle control group” value [1] is reported as “significantly decreased”, the “Mean group body weight” value ([2]; Baseline) is reported as 223.38 g and the “Mean group body weight” value ([2]; Day 1) is reported as 235.25 g. The “Mean group body weight (% from baseline)” value ([2]; Day 1) was 105.31%, the “Mean group body weight” value ([2]; Day 3) was 237.50 g and the “Mean group body weight (% from baseline)” value ([2]; Day 3) was 106.31%. The “Mean group body weight” value ([2]; Day 5) was 258.13 g, the “Mean group body weight (% from baseline)” value ([2]; Day 5) was 115.54% and the “Mean group body weight” value ([2]; Day 7) was 269.25 g. The “Mean group body weight (% from baseline)” value ([2]; Day 7) was 120.50%, the “Mean group body weight” value ([2]; Day 9) was 278.75 g and the “Mean group body weight (% from baseline)” value ([2]; Day 9) was 124.74%. For the same compound, the “Mean group body weight” value ([2]; Day 11) was 287.63 g, the “Mean group body weight (% from baseline)” value ([2]; Day 11) was 128.71% and the “Mean group body weight” value ([2]; Day 13) was 289.50 g. For the same compound, the “Mean group body weight (% from baseline)” value ([2]; Day 13) was 129.56%, the “Mean group body weight” value ([2]; Day 16) was 281.00 g and the “Mean group body weight (% from baseline)” value ([2]; Day 16) was 125.68%. For the same compound, the “Mean group body weight” value ([2]; Day 20) was 274.38 g, the “Mean group body weight (% from baseline)” value ([2]; Day 20) was 122.79% and the “Mean group body weight” value ([2]; Day 23) was 263.38 g. For the same compound, the “Mean group body weight (% from baseline)” value ([2]; Day 23) was 117.94%, the “Mean group body weight” value ([2]; Day 26) was 247.75 g and the “Mean group body weight (% from baseline)” value ([2]; Day 26) was 113.52%. The “Survived Animals in %” value ([3]; Study Day 13) was 100%, the “Survived Animals in %” value ([3]; Study Day 14) was 100% and the “Survived Animals in %” value ([3]; Study Day 15) was 100%. The “Survived Animals in %” value ([3]; Study Day 16) was 100%, the “Survived Animals in %” value ([3]; Study Day 17) was 100% and the “Survived Animals in %” value ([3]; Study Day 18) was 100%. For the same compound, the “Survived Animals in %” value ([3]; Study Day 19) was 100%, the “Survived Animals in %” value ([3]; Study Day 20) was 100% and the “Survived Animals in %” value ([3]; Study Day 21) was 100%. For the same compound, the “Survived Animals in %” value ([3]; Study Day 22) was 100%, the “Survived Animals in %” value ([3]; Study Day 23) was 100% and the “Survived Animals in %” value ([3]; Study Day 24) was 88%. The “Survived Animals in %” value ([3]; Study Day 25) was 63%, the “Survived Animals in %” value ([3]; Study Day 28) was 50% and the “mean Von Frey force required for withdrawal” value (from here on “mean Von Frey force required”) ([4]; Baseline) was 57.88 g. The “mean Von Frey force required” value ([4]; Day 13 pre dosing) was 9.81 g, the “mean Von Frey force required” value ([4]; Day 14 1 hour post dosing) was 45.13**** g and the “mean Von Frey force required” value ([4]; Day 14 2 hours post dosing) was 55.75±2.78 g and 55.75**** g. For the same compound, the “mean Von Frey force required” value ([4]; Day 15 24 hours post dosing) was 19.56 g and the “effect on neuropathic pain compared to the vehicle group (Von Frey test)” value ([4]; 150 mg/kg, 1 hour and 2 hour post dosing on study day 14) was “statistically significantly reduced the neuropathic pain”.
